The results in this text go back to patent US20240294478A1, “ANTI-CANCER COMPOUNDS AND METHODS OF USE” (YALE UNIVERSITY, priority 2021, published 2024).

Data set [1] concerns PEO4 (BRCA2+) and PEO1 (BRCA2−/−) cells. The data set is described as follows: Short-term viability assay, PEO1/PEO4 model +/- O6BG. The format is cell-based, human. The note with it: PE01/4 model. The procedure: FIGS. 8A-8K. (FIG. 8A) Change in percent cells with 1 micronuclei from baseline (DMSO control) after treatment as in FIGS. 5A and 5C. […] (FIG. 8B) Short-term viability assay curves for KL-50 in PD20 cells, deficient in FANCD2 (FANCD2−/−) or complemented with FANCD2 (+FANCD2). (FIG. 8C) Short-term viability assay curves for KL-50 in PEO4 (BRCA2+) and PEO1 (BRCA2−/−) cells pre-treated with 0.01% DMSO control or 10 μM O^6BG (+O^6BG) for 1 h prior to KL-50 addition. (FIG. 8D) Short-term viability assay curves for KL-50 in DLD1 BRCA2+/− and BRCA2−/−cells pre-treated with 0.01% DMSO control or 10 μM O^6BG (+O^6BG) for 1 h prior to KL-50 addition. For FIGS. 8B-8D, points, mean; error bars, SD; n=3 technical replicates. […] The % FANCD2 ubiquitination (% FANCD2 Ub) is quantified as the background-corrected integrated band intensity of the upper band divided by the sum of the background-corrected integrated band intensities of the upper and lower bands. […]
Short-term Cell Viability Assay. […] Cells were imaged on a Cytation 3 imaging reader (BioTek) and quantified using CellProfiler software. For in vitro short-term growth delay experiments, IC50 values were determined from the nonlinear regression equation, [inhibitor] vs normalized response with variable slope.

In data set [2] the test system is LN229 MGMT+/−, MMR+/− isogenic lines. The data set is described as follows: Short-term cell viability with ROS scavenger NAC. The data set is classed as cell-based, human. The note with it: increasing concentrations of NAC. How it is done:
(§1) Columns, mean; error bars, SD; n=2 independent analyses. For (A) and (C), points, mean; error bars, SD; n=3 technical replicates.
(§2) Short-term Cell Viability Assay. Cells were seeded in 96-well plates at 1000 or 2000 cells/well and allowed to adhere at 23° C. for 60 min and then incubated overnight at 37° C. Cells were treated with indicated concentrations of compounds in triplicate for 4-6 days prior to fixation with 3.7% paraformaldehyde and nuclear staining with 1 μg/mL Hoechst 33342 dye. Cells were imaged on a Cytation 3 imaging reader (BioTek) and quantified using CellProfiler software. For in vitro short-term growth delay experiments, IC50 values were determined from the nonlinear regression equation, [inhibitor] vs normalized response with variable slope.

The subject of data set [3] is LN229 MGMT−/MMR+ flank tumors. Nature of the data set: Murine flank tumor model, LN229 MGMT-/MMR+. Conditions: 5 mg/kg MWF x 3 weeks, P.O. The format is in vivo, mouse. The text has this:
FIGS. 9A-91: KL-50 is safe and efficacious on both MGMT−/MMR+ and MGMT−/MMR-flank tumors over a wide range of treatment regimens and conditions. […] (FIG. 9C) Mean body weight of mice during LN229 flank tumor experiments. (FIG. 9D) Kaplan-Meier analysis of LN229 MGMT−/MMR− xenograft flank tumor-bearing mice to determine survival rate based on death, removal from study if mouse body weight loss exceeded 20% of initial body weight, or if tumor volume exceeded 2000 mm^3. […] (FIGS. 9H-91) Xenograft LN229 MGMT−/MMR+ and LN229 MGMT−/MSH6—flank tumors with a larger average starting tumor size of −400 mm^3 and −350 mm^3 respectively, treated with 3 weekly cycles of P.O administration of 10% cyclodextrin (n=4) or KL-50 (n=4, 3 cycles of 25 mg/kg on Monday, Wednesday, and Friday). The study period was limited by control groups which had to be euthanized for exceeding the ethical maximum allowed tumor size, thus ending the study. In all panels, points, mean; error bars, SEM; *, P<0.05; **, P<0.01; ***, P<0.001; ****, P<0.0001; ns, not significant.
Mouse Protocols for Flank Studies. A mouse tumor model was established by subcutaneously implanting human LN229 (MGMT−/MMR+) or LN229 (MGMT−/MMR−) cells. […] During the final centrifugation, viability was determined using trypan blue exclusion. […]

The test system of data set [4] is isogenic mouse embryonic fibroblasts (MEFs) proficient or deficient in XPA. Nature of the data set: Short-term cell viability, XPA proficient or deficient MEFs. The data set is classed as cell-based. Conditions: with or without O6BG-induced MGMT depletion. How it is done:
as §1
The potential for alternative mechanisms of action for KL-50 were probed implicating nucleotide excision repair (NER), base excision repair (BER), reactive oxygen species (ROS), and DNA duplex destabilization.
as §2

Data set [5] has as its system BJ fibroblast cells (normal cells). The data set is described as follows: Short-term cell viability, normal fibroblasts. The data set is classed as cell-based, human. Conditions: compared with TMZ. The procedure: FIG. 1B: Short-term viability assay curves for KL-50 in DLD1 MSH6-deficient cells pre-treated with 0.01% DMSO control (CTR) or 10 μM O^6BG (+O^6BG) for 1 h prior to KL-50 addition. […] Short-term viability assay curves for (FIG. 1E) KL-50 in HCT116 MLH1−/−cells or (FIG. 1F) HCT116 cells complemented with chromosome 3 carrying wildtype MLH1 (+Chr3) pre-treated with 0.01% DMSO control or 10 μM O^6BG (+O^6BG) for 1 h prior to KL-50 addition. […] For these figures, points, mean; error bars, SD; n>3 technical replicates.
as §2

As to `NC(=O)c1ncn2c(=O)n(CCF)nnc12` [KL-50], in data set [1], the “therapeutic index (TI)” value stood at 62 fold. Moreover, the “rescue of toxicity by ROS scavenger NAC” value in data set [2] is recorded as “did not result in rescue of KL-50 toxicity”. The “tumor growth, MGMT−/MMR+ flank tumors” value in data set [3] was “statistically non-inferior to TMZ”. Besides, the “sensitivity of XPA-deficient vs proficient MEFs” value in data set [4] is “no differential sensitivity”. Also, the “cytotoxicity in normal human fibroblast cells” value in data set [5] was “No increase in toxicity”.
In the case of `Cn1nnc2c(C(N)=O)ncn2c1=O` [TMZ, 4-methyl-5-oxo-2,3,4,6,8-pentazabicyclo[4.3.0]nona-2,7,9-triene-9-carboxamide, reference compound], the “tumor growth, MGMT−/MMR+ flank tumors” value in data set [3] was “suppressed tumor growth”.
